Source: patent US7138361B2, “Herbicidal heterocycles” (E. I. du Pont de Nemours and Company, priority 2000, dated 2006)

What was measured:
Test in all cases: Test D greenhouse paddy-water test in rice
Format in all cases: in vivo
Conditions in all cases: 500 g/ha alone, 21 days, 0-100 scale
[1] = system: Alisma plantago-aquatica (Ap)
Excerpt: (§1) Four plastic pots (ca. 16-cm diameter) per rate were partially filled with sterilized Tama silt loam soil comprised of a 35:50:15 ratio of sand, silt and clay and 2.6% organic matter. Separate plantings for each of the four pots were as follows. Seeds from the U.S. of Heteranthera limosa (Hl), Monochoria vaginalis (Mv), Ammania auriculata (Aa), and Sphenoclea zeylanica (Sz) were planted into one 16-cm pot for each rate. Seeds from the U.S. of Cyperus iria (Ci), Leptochloa fascicularis (Li), one stand of 9 or 10 direct-seeded rice seedlings (Oryza saliva cv. ‘Japonica—M202’; Oss), and one stand of 6 transplanted rice seedlings (Oryza sativa cv. ‘Japonica—M202’; Ost) were planted into one 16-cm pot for each rate. Seeds from the U.S. of Cyperus difformis (Cd), Alisma plantago-aquatica (Ap), and Scirpus mucronatus (Sm) were planted into one 16-cm pot for each rate. Seeds from the U.S. of Echinochloa crus-galli (Ecg), Echinochloa oryzicola (Eor), Echinochloa oryzoides (Eoz) and Echinochloa colonum (Ecc) were planted into one 16-cm pot for each rate. Plantings were sequential so that crop and weed species were at the 2.0 to 2.5-leaf stage at time of treatment.
(§2) Potted plants were grown in a greenhouse with day/night temperature settings of 29.5/26.7° C., and supplemental balanced lighting was provided to maintain a 16-hour photoperiod. Test pots were maintained in the greenhouse until test completion.
(§3) Chemical treatments consisting of Compound 1 of Index Table A (Cmpd 1), daimuron (Cmpd D), quinoclamine (Cmpd Q) and combinations thereof were formulated in acetone. At time of treatment, test pots were flooded to 3 cm above the soil surface, treated by application of test compounds directly to the paddy water, and then maintained at that water depth for the duration of the test. Effects of treatments on rice and weeds were visually evaluated by comparison to untreated controls after 21 days. Plant response ratings are reported on a 0 to 100 scale; where 0 is no effect and 100 is complete control. ND means no data.
(§4) Colby's equation was used to calculate the expected additive herbicidal effect of the mixtures of Compound 1 with daimuron (Cmpd D) and quinoclamine (Cmpd Q). Colby's equation (Colby, S. R “Calculating Synergistic and Antagonistic Responses of Herbicide Combinations,” Weeds, 15(1), pp 20–22 (1967)) calculates the expected additive effect of herbicidal mixtures, and for two active ingredients is of the form: Pa+b=Pa+Pb−(PaPb/100) wherein Pa+b is the percentage effect of the mixture expected from additive contribution of the individual components, • Pa is the observed percentage effect of the first active ingredient at the same use rate as in the mixture, and • Pb is the observed percentage effect of the second active ingredient at the same use rate as in the mixture.

Ammania auriculata (Aa) = system: Ammania auriculata (Aa)
Excerpt: as §1, §2, §3, §4

Cyperus difformis (Cd) = system: Cyperus difformis (Cd)
Excerpt: as §1, §2, §3, §4

Cyperus iria (Ci) = system: Cyperus iria (Ci)
Excerpt: as §1, §2, §3, §4

[2] = system: Echinochloa colonum (Ecc)
Excerpt: as §1, §2, §3, §4

[3] = system: Echinochloa crus-galli (Ecg)
Excerpt: as §1, §2, §3, §4

[4] = system: Echinochloa oryzicola (Eor)
Excerpt: as §1, §2, §3, §4

[5] = system: Echinochloa oryzoides (Eoz)
Excerpt: as §1, §2, §3, §4

Heteranthera limosa (Hl) = system: Heteranthera limosa (Hl)
Excerpt: as §1, §2, §3, §4

[6] = system: Leptochloa fascicularis (Li)
Excerpt: as §1, §2, §3, §4

[7] = system: Monochoria vaginalis (Mv)
Excerpt: as §1, §2, §3, §4

Scirpus mucronatus (Sm) = system: Scirpus mucronatus (Sm)
Excerpt: as §1, §2, §3, §4

[8] = system: Sphenoclea zeylanica (Sz)
Excerpt: as §1, §2, §3, §4

[9] = system: direct-seeded rice seedlings (Oryza saliva cv. 'Japonica—M202'; Oss)
Excerpt: as §1, §2, §3, §4

[10] = system: transplanted rice seedlings (Oryza sativa cv. 'Japonica—M202'; Ost)
Excerpt: as §1, §2, §3, §4

NC1=C(Cl)C(=O)c2ccccc2C1=O [quinoclamine, reference compound]
30: Obs. (observed effect) Eor [4]
0: Obs. (observed effect) Aa (Ammania auriculata (Aa)) | Obs. (observed effect) Ci (Cyperus iria (Ci)) | Obs. (observed effect) Ecc [2] | Obs. (observed effect) Ecg [3] | Obs. (observed effect) Eoz [5] | Obs. (observed effect) Hl (Heteranthera limosa (Hl)) | Obs. (observed effect) Lf [6] | Obs. (observed effect) Mv [7] | Obs. (observed effect) Sm (Scirpus mucronatus (Sm)) | Obs. (observed effect) Sz [8] | Obs. (observed effect) Oss [9] | Obs. (observed effect) Ost [10]
35: Obs. (observed effect) Cd (Cyperus difformis (Cd))
60: Obs. (observed effect) Ap [1]
